# Test results from patent US6872689B1, “Water-dispersible agrochemical compositions” (Agform, Ltd., priority 1999, dated 2005).
# Type: physicochemical
# Description: 200 mls water was poured into a jacketed glass vessel and allowed to reach 25 C. A Grant recirculator was used to maintain the temperature at 25 C+/−1 C. A magnetic stirrer at a set speed was used to stir the water. The specified weight of granules was then added to the water and allowed to disperse for 30 seconds before a timer was started. A 2 mls sample was removed using a syringe after 5 minutes and filtered using a 0.45 micron syringe filter. The solution was then analysed to determine the active concentration using a HPLC method.
smiles,measurement,setting,value
"COc1nc(C)nc(NC(=O)NS(=O)(=O)c2ccccc2Cl)n1 [Airmilled technical, Chlorsulfuron]",solubility in distilled water (in words),,not readily soluble
same,% active added to water that dissolved after 5 minutes,"chlorsulfuron, dilution rate 91 mgs a.i./L, distilled water, 25 C",<2%
